# In PubChem BioAssay (NCI):
#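 The compound was tested at five concentrations on cells cultured in 96-well plates, with a 48-hour exposure period. TGI is the concentration that stops growth completely.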
# Columns and labels:
# Test in all cases: DTP human tumour cell line panel, 48 h
# RXF 393 renal = system: RXF 393 renal
# NCI-H522 lung = system: NCI-H522 lung
# OVCAR-8 ovarian = system: OVCAR-8 ovarian
# RPMI-8226 leukemia = system: RPMI-8226 leukemia
# HOP-62 NSCLC = system: HOP-62 NSCLC
# SNB-75 CNS = system: SNB-75 CNS
# NCI-H226 lung = system: NCI-H226 lung
# K-562 leukemia = system: K-562 leukemia
# HCT-116 colon = system: HCT-116 colon
# NCI-H460 lung = system: NCI-H460 lung
# ACHN renal = system: ACHN renal
# SF-295 CNS = system: SF-295 CNS
# EKVX NSCLC = system: EKVX NSCLC
# MOLT-4 leukemia = system: MOLT-4 leukemia
# LXFL 529 NSCLC = system: LXFL 529 NSCLC
# 786-0 renal = system: 786-0 renal
# KM20L2 colon = system: KM20L2 colon
# SK-OV-3 ovarian = system: SK-OV-3 ovarian
# SW-620 colon = system: SW-620 colon
# XF 498 CNS = system: XF 498 CNS
# SK-MEL-5 melanoma = system: SK-MEL-5 melanoma
# COLO 205 colon = system: COLO 205 colon
# UO-31 renal = system: UO-31 renal
# UACC-257 melanoma = system: UACC-257 melanoma
# A549 NSCLC = system: A549 NSCLC
# M14 melanoma = system: M14 melanoma
# HT29 colon = system: HT29 colon
# HOP-92 NSCLC = system: HOP-92 NSCLC
# TK-10 renal = system: TK-10 renal
# SF-268 CNS = system: SF-268 CNS
# SN12C renal = system: SN12C renal
# U251 CNS = system: U251 CNS
# SNB-19 CNS = system: SNB-19 CNS
# HCT-15 colon = system: HCT-15 colon
# SK-MEL-2 melanoma = system: SK-MEL-2 melanoma
# DMS 273 small cell lung = system: DMS 273 small cell lung
# SR leukemia = system: SR leukemia
# CCRF-CEM leukemia = system: CCRF-CEM leukemia
# LOX IMVI melanoma = system: LOX IMVI melanoma
# DMS 114 small cell lung = system: DMS 114 small cell lung
# KM12 colon = system: KM12 colon
# IGROV1 ovarian = system: IGROV1 ovarian
# SK-MEL-28 melanoma = system: SK-MEL-28 melanoma
# MALME-3M melanoma = system: MALME-3M melanoma
# HOP-18 NSCLC = system: HOP-18 NSCLC
# CAKI-1 renal = system: CAKI-1 renal
# UACC-62 melanoma = system: UACC-62 melanoma
# HCC-2998 colon = system: HCC-2998 colon
# HL-60(TB) leukemia = system: HL-60(TB) leukemia
# DLD-1 colon = system: DLD-1 colon
# NCI-H23 lung = system: NCI-H23 lung
# OVCAR-4 ovarian = system: OVCAR-4 ovarian
# A498 renal = system: A498 renal
# OVCAR-5 ovarian = system: OVCAR-5 ovarian
# SNB-78 CNS = system: SNB-78 CNS
# M19-MEL melanoma = system: M19-MEL melanoma
# SF-539 CNS = system: SF-539 CNS
# OVCAR-3 ovarian = system: OVCAR-3 ovarian
# PC-3 prostate = system: PC-3 prostate
# DU-145 prostate = system: DU-145 prostate
# MDA-MB-231 breast = system: MDA-MB-231 breast
# MDA-N = system: MDA-N
# MDA-MB-435 = system: MDA-MB-435
# HS 578T breast = system: HS 578T breast
# T-47D breast = system: T-47D breast
# BT-549 breast = system: BT-549 breast
# NCI/ADR-RES ovarian = system: NCI/ADR-RES ovarian
# MCF7 breast = system: MCF7 breast
structure (smiles),measurement,setting,value
Cc1c(/C=N/N(C)C)oc2c1cc(O)c1ncccc12,TGI,RXF 393 renal,58.6 µM
same,TGI,NCI-H522 lung,8.58 µM
same,TGI,OVCAR-8 ovarian,74.2 µM
same,TGI,RPMI-8226 leukemia,> 100 µM
same,TGI,HOP-62 NSCLC,> 100 µM
same,TGI,SNB-75 CNS,86.6 µM
same,TGI,NCI-H226 lung,48.9 µM
same,TGI,K-562 leukemia,> 100 µM
same,TGI,HCT-116 colon,> 100 µM
same,TGI,NCI-H460 lung,41 µM
same,TGI,ACHN renal,> 100 µM
same,TGI,SF-295 CNS,97.9 µM
same,TGI,EKVX NSCLC,6.37 µM
same,TGI,MOLT-4 leukemia,16.8 µM
same,TGI,LXFL 529 NSCLC,> 100 µM
same,TGI,786-0 renal,> 100 µM
same,TGI,KM20L2 colon,> 100 µM
same,TGI,SK-OV-3 ovarian,71.7 µM
same,TGI,SW-620 colon,> 100 µM
same,TGI,XF 498 CNS,> 100 µM
same,TGI,SK-MEL-5 melanoma,39.3 µM
same,TGI,COLO 205 colon,> 100 µM
same,TGI,UO-31 renal,7.12 µM
same,TGI,UACC-257 melanoma,> 100 µM
same,TGI,A549 NSCLC,> 100 µM
same,TGI,M14 melanoma,14.9 µM
same,TGI,HT29 colon,> 100 µM
same,TGI,HOP-92 NSCLC,76.8 µM
same,TGI,TK-10 renal,> 100 µM
same,TGI,SF-268 CNS,> 100 µM
same,TGI,SN12C renal,96.4 µM
same,TGI,U251 CNS,> 100 µM
same,TGI,SNB-19 CNS,> 100 µM
same,TGI,HCT-15 colon,> 100 µM
same,TGI,SK-MEL-2 melanoma,44.5 µM
same,TGI,DMS 273 small cell lung,37.7 µM
same,TGI,SR leukemia,40.4 µM
same,TGI,CCRF-CEM leukemia,7.26 µM
same,TGI,LOX IMVI melanoma,45.2 µM
same,TGI,DMS 114 small cell lung,8.59 µM
same,TGI,KM12 colon,> 100 µM
same,TGI,IGROV1 ovarian,55.7 µM
same,TGI,SK-MEL-28 melanoma,> 100 µM
same,TGI,MALME-3M melanoma,84.5 µM
same,TGI,HOP-18 NSCLC,16 µM
same,TGI,CAKI-1 renal,22.4 µM
same,TGI,UACC-62 melanoma,45.9 µM
same,TGI,HCC-2998 colon,> 100 µM
same,TGI,HL-60(TB) leukemia,6.46 µM
same,TGI,DLD-1 colon,> 100 µM
same,TGI,NCI-H23 lung,> 100 µM
same,TGI,OVCAR-4 ovarian,96.6 µM
same,TGI,A498 renal,82 µM
same,TGI,OVCAR-5 ovarian,> 100 µM
Nc1ncnc2c1ncn2C1CC(OCc2ccccc2[N+](=O)[O-])C(CO)O1 (configuration not stated),TGI,RXF 393 renal,21.4 µM
same,TGI,NCI-H522 lung,35.9 µM
same,TGI,OVCAR-8 ovarian,> 50 µM
same,TGI,RPMI-8226 leukemia,> 50 µM
same,TGI,SNB-78 CNS,> 50 µM
same,TGI,HOP-62 NSCLC,> 50 µM
same,TGI,NCI-H226 lung,36.3 µM
same,TGI,K-562 leukemia,> 50 µM
same,TGI,HCT-116 colon,> 50 µM
same,TGI,NCI-H460 lung,> 50 µM
same,TGI,ACHN renal,47.6 µM
same,TGI,SF-295 CNS,> 50 µM
same,TGI,EKVX NSCLC,> 50 µM
same,TGI,MOLT-4 leukemia,> 50 µM
same,TGI,LXFL 529 NSCLC,> 50 µM
same,TGI,786-0 renal,> 50 µM
same,TGI,KM20L2 colon,> 50 µM
same,TGI,SK-OV-3 ovarian,> 50 µM
same,TGI,SW-620 colon,> 50 µM
same,TGI,XF 498 CNS,> 50 µM
same,TGI,COLO 205 colon,16.9 µM
same,TGI,UO-31 renal,48 µM
same,TGI,M19-MEL melanoma,48.5 µM
same,TGI,UACC-257 melanoma,> 50 µM
same,TGI,A549 NSCLC,> 50 µM
same,TGI,M14 melanoma,> 50 µM
same,TGI,HT29 colon,> 50 µM
same,TGI,HOP-92 NSCLC,> 50 µM
same,TGI,TK-10 renal,> 50 µM
same,TGI,SF-539 CNS,> 50 µM
same,TGI,SF-268 CNS,> 50 µM
same,TGI,SN12C renal,> 50 µM
same,TGI,U251 CNS,> 50 µM
same,TGI,SNB-19 CNS,> 50 µM
same,TGI,HCT-15 colon,> 50 µM
same,TGI,SK-MEL-2 melanoma,> 50 µM
same,TGI,OVCAR-3 ovarian,> 50 µM
same,TGI,DMS 273 small cell lung,> 50 µM
same,TGI,SR leukemia,34.6 µM
same,TGI,CCRF-CEM leukemia,> 50 µM
same,TGI,LOX IMVI melanoma,> 50 µM
same,TGI,DMS 114 small cell lung,47.2 µM
same,TGI,KM12 colon,> 50 µM
same,TGI,IGROV1 ovarian,> 50 µM
same,TGI,SK-MEL-28 melanoma,> 50 µM
same,TGI,MALME-3M melanoma,> 50 µM
same,TGI,HOP-18 NSCLC,> 50 µM
same,TGI,HCC-2998 colon,> 50 µM
same,TGI,HL-60(TB) leukemia,31.6 µM
same,TGI,DLD-1 colon,> 50 µM
same,TGI,NCI-H23 lung,> 50 µM
same,TGI,OVCAR-4 ovarian,> 50 µM
same,TGI,A498 renal,> 50 µM
same,TGI,OVCAR-5 ovarian,> 50 µM
O=[N+]([O-])c1ccc(O)c(/C=N/NC(=S)N2CCCCC2)c1,TGI,RXF 393 renal,> 100 µM
same,TGI,NCI-H522 lung,> 45.3 µM
same,TGI,PC-3 prostate,> 92.7 µM
same,TGI,OVCAR-8 ovarian,4.66 µM
same,TGI,RPMI-8226 leukemia,> 52.4 µM
same,TGI,DU-145 prostate,> 52.5 µM
same,TGI,HOP-62 NSCLC,> 100 µM
same,TGI,SNB-75 CNS,33.1 µM
same,TGI,NCI-H226 lung,5.94 µM
same,TGI,K-562 leukemia,> 100 µM
same,TGI,HCT-116 colon,40.3 µM
same,TGI,NCI-H460 lung,38.3 µM
same,TGI,ACHN renal,6.97 µM
same,TGI,SF-295 CNS,28.7 µM
same,TGI,EKVX NSCLC,15.3 µM
same,TGI,MOLT-4 leukemia,> 44.4 µM
same,TGI,786-0 renal,13.8 µM
same,TGI,SK-OV-3 ovarian,> 56.6 µM
same,TGI,MDA-MB-231 breast,52.2 µM
same,TGI,SW-620 colon,> 59 µM
same,TGI,SK-MEL-5 melanoma,21 µM
same,TGI,COLO 205 colon,> 37.9 µM
same,TGI,MDA-N,60.1 µM
same,TGI,UO-31 renal,4.58 µM
same,TGI,UACC-257 melanoma,14.1 µM
same,TGI,A549 NSCLC,> 100 µM
same,TGI,MDA-MB-435,> 83 µM
same,TGI,M14 melanoma,> 100 µM
same,TGI,HT29 colon,15 µM
same,TGI,HOP-92 NSCLC,33 µM
same,TGI,HS 578T breast,> 60 µM
same,TGI,TK-10 renal,44 µM
same,TGI,SF-539 CNS,> 100 µM
same,TGI,SF-268 CNS,24.6 µM
same,TGI,SN12C renal,> 41.9 µM
same,TGI,U251 CNS,90.3 µM
same,TGI,SNB-19 CNS,> 53.6 µM
same,TGI,HCT-15 colon,44.1 µM
same,TGI,T-47D breast,> 80.1 µM
same,TGI,BT-549 breast,63.4 µM
same,TGI,SK-MEL-2 melanoma,50.4 µM
same,TGI,OVCAR-3 ovarian,> 100 µM
same,TGI,NCI/ADR-RES ovarian,3.85 µM
same,TGI,SR leukemia,> 70.2 µM
same,TGI,CCRF-CEM leukemia,> 82 µM
same,TGI,LOX IMVI melanoma,17.1 µM
same,TGI,KM12 colon,40 µM
same,TGI,IGROV1 ovarian,8.76 µM
same,TGI,SK-MEL-28 melanoma,> 100 µM
same,TGI,MALME-3M melanoma,10.3 µM
same,TGI,CAKI-1 renal,34.4 µM
same,TGI,UACC-62 melanoma,> 30.5 µM
same,TGI,MCF7 breast,> 100 µM
same,TGI,HCC-2998 colon,34.1 µM
same,TGI,HL-60(TB) leukemia,> 42.1 µM
same,TGI,NCI-H23 lung,32.9 µM
same,TGI,OVCAR-4 ovarian,50.7 µM
same,TGI,A498 renal,> 44.2 µM
same,TGI,OVCAR-5 ovarian,> 100 µM
